Literature values in patent publication US20090137653A1, “SUBSTITUTED BENZYLAMINES AS CYP2A INHIBITORS AND USES THEREOF TO TREAT NICOTINE DEPENDENCE” (INFLAYZME PHARMACEUTICALS LTD., priority 2005, published 2009).

What was measured:
[1] = molecular target: CYP2A6 (Homo sapiens, UniProt P11509); conditions: read-out: CYP2A6 Ki; human liver microsomes
Chain of CYP2A6 (P11509 whole entry): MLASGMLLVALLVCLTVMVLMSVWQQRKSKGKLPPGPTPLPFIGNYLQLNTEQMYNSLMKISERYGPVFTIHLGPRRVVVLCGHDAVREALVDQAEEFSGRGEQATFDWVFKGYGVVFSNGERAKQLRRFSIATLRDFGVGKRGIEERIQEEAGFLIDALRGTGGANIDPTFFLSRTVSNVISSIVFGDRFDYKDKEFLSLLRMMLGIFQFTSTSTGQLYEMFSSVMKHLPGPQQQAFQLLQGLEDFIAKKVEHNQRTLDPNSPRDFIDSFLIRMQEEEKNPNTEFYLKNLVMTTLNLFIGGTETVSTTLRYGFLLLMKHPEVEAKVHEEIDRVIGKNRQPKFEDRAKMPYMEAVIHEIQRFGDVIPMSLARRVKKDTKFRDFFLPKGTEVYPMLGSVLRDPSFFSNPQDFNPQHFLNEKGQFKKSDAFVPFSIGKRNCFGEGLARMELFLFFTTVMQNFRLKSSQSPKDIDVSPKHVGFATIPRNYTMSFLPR

SMILES | half-life (in vivo) [h] | eliminated by first pass effect (taken orally, liver) | Ki [1] [nM]
CN1CCCC1c1cccnc1 (stereo not drawn) [nicotine] | 1 to 2 | around 70% | 
N[C@@H]1C[C@H]1c1ccccc1 (racemic) [tranylcypromine] |  |  | 200
